Drawing on the NIST ThermoML archive (doi:10.1016/j.jct.2016.09.008), this text covers refractive index and mass density for 3 compounds.

SMILES strings stand for the structures. ± gives the expanded uncertainty stated by the source.

Data set [1] in a line: refractive index (Na D-line) (dimensionless). The settings on record: 298.15 K; 101.33 kPa; Liquid; Standard Abbe refractometry.
Data set [2] in a line: wn = mass fraction of the nth substance listed. The conditions noted are these: 298.15 K; 101.1 kPa; Liquid; Vibrating tube method; w1 = 0.85.
The nature of data set [3]: refractive index (Na D-line) (dimensionless); wn = mass fraction of the nth substance listed. The conditions noted are these: 298.15 K; 101.1 kPa; Liquid; Standard Abbe refractometry; w1 = 0.85.
For data set [4] the following is noted: 298.15 K; 101.33 kPa; Liquid; Vibrating tube method.

`O` [water]: the refractive index in data set [1] was determined as 1.3326 ± 0.0005. On to `O=P(O)(O)O` [phosphoric acid] + O, for which the mass density in data set [2] is recorded as 1682.8 ± 2.5 kg/m3. Further, the refractive index in data set [3] worked out at 1.432 ± 0.0005. Consider `CC1COC(=O)O1` (stereo not given) [4-methyl-1,3-dioxolan-2-one], for which the mass density in data set [4] is 1198.3 ± 2.4 kg/m3. The refractive index in data set [1] is listed as 1.419 ± 0.0005.

By refractive index is commonly meant a measure of how strongly the sample bends light. As a reminder, the mass density is mass per unit of volume.
